# What was measured:
# [1] = Inhibition of peroxidation induced on liposomes by HO2/FeCl2 (Fenton reaction); details: 0.06 mmol/l; similar protocol with HO2/FeCl2 added to the liposomes
# Method: (§1) In order to seek an antioxidant activity, we evaluated 2,9-diacetyloxy-1,10-dimethoxy-6-methyl-noraporphine (compound II) effect on the inhibition of peroxidation induced on liposomes by UVA or pair HO2/FeCl2.
# (§2) The liposomes, once manufactured, receive the products to be tested in solution. Then they are put under UVA lamp and are irradiated to 10 J/cm^2. The liposomes are incubated at 45° C. After 24 hours, the lipidic peroxidation is quantified by estimating the rate of combined dienes markers. The effect of the product is compared with negative control.
# A strong inhibition (−60% with 0.06 mmol/l) is also obtained in a similar protocol when HO2/FeCl2. is added (Fenton reaction) to the solution of liposomes.
# [2] = test system: G-3-PDH (Glycerol-3-Phosphate deshydrogenase) activity in fibroblasts 3T3 L1 / pre-adipocytes; experiment: Inhibition of lipogenesis (in vitro): G-3-PDH activity in differentiating 3T3 L1 pre-adipocytes; type: cell-based; details: for ACTIVITY G-3-PDH/10^−6 cells (inhibition in % of the witness): average of 3 independent tests
# Method: The following test is based on the fact that a cocktail from substances (hormonal messengers) induce the fibroblasts 3T3 L1 differentiation, in culture, into pre-adipocytes then in adipocytes charged with lipids.
# The culture proceeds in three stages: cellular multiplication until confluence, addition of cocktail of differentiation (stage during which the initial pre-adipocytes are obtained (72 hours), then active differentiation with lipogenesis stimulation (approximately 72 hours) at the end of which apparent storage in lipidic droplets is then definitely visible under microscope.
# The enzyme G-3-PDH (Glycerol-3-Phosphate deshydrogenase), essential to triglyceride synthesis is expressed very strongly during this active stage of lipidic storage.
# The product to be tested is added at the second step.
# After the incubation period the G-3-PDH activity is compared between the pre-adipocytes witnesses and those incubated in the presence of the tested product. Under these conditions, a product which inhibits the lipogenesis causes a fall of the G-3-PDH activity.
# After the induced differentiation, the solution to test is added to the culture of pre-adipocytes, here a 2,9-diacetyloxy-1,10-dimethoxy-6-methyl-noraporphine solution (compound II). In parallel, two witness cultures, one in negative and the other in positive are carried out.
# At the end of the incubation, the cells are taken and lysed and the test is carried out on the intracellular contents.
# The G-3-PDH activity is measured by NADH disappearance (λ=340 nm).
# The enzymatic activity values are standardized with the number of cells.
# [3] = Inhibition of peroxidation induced on liposomes by UVA; details: for Inhibition perox. UVA: UVA 10 J/cm^2, 45° C., 24 hours, combined dienes
# Method: as §1, §2
# [4] = test system: normal human melanocytes (MHN); experiment: Inhibition of melanin synthesis (in vitro) in culture of normal human melanocytes; type: cell-based; details: 7 days of exposure, various concentrations, vs control cells, normalized on protein content
# Method: The efficacy of the products on melanization was tested in culture of normal human melanocytes (MHN). This culture medium is conventionally used to test variations in melanin levels. The cells are incubated in the presence of the test product for 7 days while the control cells are incubated in the culture medium alone.
# After 7 days, the total melanin (phaeomelanin and eumelanin) present in the cells is determined after cell lysis and dissolution in sodium hydroxide, the assay is colorimetric.
# The melanin level produced under exposure to the test product at various concentrations are compared to those obtained with the control cells. The data are normalized on the protein content of the sample.
# The inhibition of synthesis observed after 7 days of exposure to those products is dependent on the test concentration. Inhibition varies from −28 to −51%.
smiles,measurement,setting,value
"COc1cc2c(cc1OC(C)=O)CC1c3c(cc(OC(C)=O)c(OC)c3-2)CCN1C (centres unmarked) [compound II, 2,9-diacetyloxy-1,10-dimethoxy-6-methyl-noraporphine]","Inhibition of peroxidation, HO2/FeCl2 (Fenton reaction)",[1],−60%
same,ACTIVITY G-3-PDH/10^−6 cells (inhibition in % of the witness),[2]; 0.03 mmol/l,−49%
same,ACTIVITY G-3-PDH/10^−6 cells (inhibition in % of the witness),[2]; 0.06 mmol/l,−67%
same,Morphology of the preadipocytes under microscope,[2]; compared to witness cells,few lipidic inclusions
same,Inhibition perox. UVA,[3]; 0.03 mmol/l,−93%
same,Inhibition perox. UVA,[3]; 0.06 mmol/l,−87%
same,Inhibition perox. UVA,[3]; 0.09 mmol/l,−89%
same,Inhibition perox. UVA,[3]; 0.15 mmol/l,≈−100%
same,Inhibition perox. UVA,[3]; 0.30 mmol/l,≈−100%
same,Inhibition of lipidic peroxidation UVA induced (in words),[3]; with the tested concentrations (0.03-0.30 mmol/l),almost completely inhibits
same,Inhibition of melanin synthesis,[4],−28 to −51%

# — patent US7354926B2, “Molecules derived from noraporphine” (Sederma SAS, priority 2002, dated 2008)
